Reference: patent EP1781294B1, “COMPOSITION FOR IMPROVED BIOAVAILABILITY AND ENHANCED BRAIN DELIVERY OF 5,5-DIPHENYL BARBITURIC ACID” (priority 2004, dated 2006)
Like-named read-outs stand apart in the source and are kept apart here.

What was measured:
[1] = Pharmacokinetics of MMMDPB and DPB after oral MMMDPB or NaMMMDPB and intravenous NaMMMDPB; type: in vivo, Beagle dogs
Method: (§1) In accordance with the present invention, pharmacokinetic parameters were calculated using standard non-compartmental methods, as implemented in WinNonlin™ 4.0.1. […] The mean, SD and CV (%) were used to calculate the AUC0-t (µg.h/mL), Cmax (µg/ml) (the maximum observed concentration), Tmax (hours) (the time to reach that peak concentration) and Kel (the elimination rate constant) for each animal and each analyte.
(§2) AUC0-t was calculated using the linear trapezoidal rule, which employs an approximate integration formula. The area of each trapezoid was calculated, and the sum of all the areas of all the trapezoids yielded an estimate of the true area under the curve. (See, Gibaldi et al. Pharmacokinetics. 2nd Ed. Marcel Dekker, Inc., 1982; Yeh et al., A comparison of numerical integrating algorithms by trapezoidal, lagrange, and spline approximations. J. Pharmacokinet Biopharm. 6: 79 (1978), the disclosure of which is herein incorporated by reference.) Cmax and Tmax were then determined for each concentration vs. time profile. Elimination rate constant (Kel) was calculated using regression analyses on the natural log (In) of plasma concentration values (y) versus time (x).
Blood samples were obtained pre-dose and 0.25, 0.5, 1, 2, 3, 4, 6, 9, 12, 15, 18, and 24 hours after dosing. Venous blood (~1 mL) were drawn and collected in lithium heparin (anticoagulant). Blood samples were spun in a refrigerated centrifuge and plasma were stored at -80°C prior to analysis. […] Calibration curves were obtained using a weighted (1/C^2) least squares linear regression analysis of peak area ratio (analyte/internal standard) versus the nominal concentration of the calibration standards. Concentrations were obtained by interpolation from the run defined calibration curve. Regressions and figures were generated by PE Sciex Analyst Version 1.2 software.
Plasma samples were thawed and subjected to solid phase extraction with 2 mL acetonitrile prior to HPLC method with Tandem Mass Spectrometry Detection. Chromatographic conditions were performed as followed: […]

[2] = Pharmacokinetics of DPB after oral DPB or NaDPB and intravenous NaDPB; type: in vivo, Sprague-Dawley rats; settings: 150 mg/kg; for AUC0-t for DPB greater than after oral administration of DPB / Cmax for DPB greater than after oral administration of DPB: versus oral DPB; for AUC at 24 h: rat, in vivo, analyte DPB, read-out: AU0-24
Method: as §1, §2
(§3) We examined the delivery of DPB to the vascular compartment by administrating directly DPB and compared it with the sodium salt of DPB. This study compared the pharmacokinetics of DPB after oral administration of DPB (150 mg/kg) and sodium salt of DPB (150 mg/kg) in rats. Fifty-four rats were administered DPB and sodium salt of DPB by a single oral gavage (n=54). Blood samples were obtained (approximately 0.5 mL each) were collected following each treatment from animal via the jugular vein. Blood samplings from groups of 3 rats/sex/time point were collected at various times after dosing, in order to provide the complete time-points of pre-dose, 0, 0.5, 1, 2, 3, 4, 6, 12, 18, 24, 36 and 48 hours after dosing. Each blood sample was collected into a tube containing lithium heparin and the samples were spun in a refrigerated centrifuge. The resultant plasma was stored at -80°C prior to analysis. DPB was quantified in plasma using HPLC (LLOQ=0.25 µg/mL).
We calculated AUC0-t for DPB at various times (24, 36 and 48 hours) after oral administrations of DPB and sodium salt of DPB. Table 5: AUCs at various times (24,36 and 48 hours) after Oral Administration of DPB and NaDPB in Beagle Dogs (75 mg/kg, n=28)

[3] = as above; type: in vivo, Beagle dogs; settings: 75 mg/kg, versus oral DPB free acid
Method: as §1, §2
We examined the delivery of DPB to the vascular compartment by administrating directly DPB and compared it with the sodium salt of DPB in dogs. […] DPB was quantified in plasma using HPLC (LLOQ=0.25 µg/mL). […]

[4] = aqueous solution at pH 7; cited from earlier work
[5] = system: maximal electroshock seizure (MES); settings: cited from earlier work
[6] = Brain concentration of DPB after oral DPB or NaDPB and intravenous NaDPB; type: in vivo, Sprague-Dawley rats; settings: 150 mg/kg
Method: as §3
In this study, we measured the brain concentration of DPB. Brains were collected as soon as possible after euthanasia from each rat. They were stored in a freezer at -80°C prior to determination of DPB brain tissue concentrations. Table 6 summarizes the brain concentrations of DPB after oral administration of DPB and sodium salt of DPB in Sprague-Dawley rats.

[7] = dog, in vivo, iv, 15 mg/kg, IV infusion, analyte DPB

For `COCN1C(=O)NC(=O)C(c2ccccc2)(c2ccccc2)C1=O` [MMMDPB, monomethoxymethyl-5,5-diphenyl barbituric acid], which AUC(0-t) ([1]; Oral, 30 mg/kg, analyte DPB) is on record?
Its AUC(0-t) is 193.18 µg·h/mL.

What about the Tmax ([1]; dog, in vivo, Oral, 30 mg/kg, analyte DPB) of the same compound?
Its Tmax is 9.39 h.

And the Cmax ([1]; dog, in vivo, Oral, 30 mg/kg, analyte DPB, plasma, n=8)?
Its Cmax is 13900 ng/mL.

What about the AUC(0-t) ([1]; dog, in vivo, Oral, 30 mg/kg, analyte DPB, read-out: AUC0-t) of the same compound?
The AUC(0-t) was 193 µg·h/mL.

Which “AUC0-t for DPB greater than after oral administration of DPB” value (from here on “AUC0-t for DPB greater than”) ([2]; Oral, female) does the source give for `O=C1NC(=O)C(c2ccccc2)(c2ccccc2)C(=O)N1.[Na]` [NaDPB, sodium 5,5-diphenyl barbiturate] here?
Its value is ~ 2 fold.

And the “Cmax for DPB greater than after oral administration of DPB” value (from here on “Cmax for DPB greater than”) ([2]; Oral, female)?
Its value is ~ 1.5 fold.

And the “AUC0-t for DPB greater than” value ([2]; Oral, male)?
Its value is ~ 4.5 fold.

What about the “Cmax for DPB greater than” value ([2]; Oral, male) of the same compound?
Its value is ~ 2.5 fold.

And the AUC at 24 h ([2]; iv, IV infusion, female)?
Its AUC at 24 h is 3400 µg·h/mL.

What about the AUC at 24 h ([2]; iv, IV infusion, male) of the same compound?
Its AUC at 24 h is 3160 µg·h/mL.

And the AUC at 24 h ([2]; po, Oral, female)?
Its AUC at 24 h is 1990 µg·h/mL.

And the AUC at 24 h ([2]; po, Oral, male)?
The AUC at 24 h was 1710 µg·h/mL.

What about the “AUC0-t for DPB greater than” value [3] of the same compound?
Its value is ~ 4 fold.

And the “Cmax for DPB greater than” value [3]?
Its value is ~ 3 fold.

Which AUC(0-t) ([1]; Oral, 30 mg/kg, analyte DPB) does the source give for `COCN1C(=O)NC(=O)C(c2ccccc2)(c2ccccc2)C1=O` [NaMMMDPB, sodium monomethoxymethyl-5,5-diphenyt barbiturate] here?
The AUC(0-t) was 135.10 µg·h/mL.

What about the AUC(0-t) ([1]; dog, in vivo, iv, 15 mg/kg, IV infusion, 15 mg/kg, analyte DPB, read-out: AUC0-t) of the same compound?
Its AUC(0-t) is 59.4 µg·h/mL.

What about the Cmax [1, 7] of the same compound?
Its Cmax is 8600 ng/mL.

What about the Tmax [1, 7] of the same compound?
The Tmax was 3.13 h.

What about the AUC(0-t) ([1]; dog, in vivo, po, 30 mg/kg, Oral, 30 mg/kg, analyte DPB, read-out: AUC0-t) of the same compound?
Its AUC(0-t) is 135 µg·h/mL.

And the AUC(0-t) ([1]; dog, in vivo, po, 30 mg/kg, Oral, 30 mg/kg, analyte MMMDPB, read-out: AUC0-t)?
Its AUC(0-t) is 29.4 µg·h/mL.

What about the Tmax ([1]; dog, in vivo, po, 30 mg/kg, analyte DPB) of the same compound?
Its Tmax is 7.28 h.

And the Cmax ([1]; dog, in vivo, po, 30 mg/kg, analyte DPB, plasma, n=8)?
Its Cmax is 11600 ng/mL.

And the bioavailability ([1]; dog, in vivo, Oral, 30 mg/kg, analyte DPB, read-out: F (absolute bioavailability))?
The bioavailability was 315%.

Which “Water solubility, less soluble as compared to phenobarbital” value [4] does the source give for `O=C1NC(=O)C(c2ccccc2)(c2ccccc2)C(=O)N1` [DPB, 5,5-diphenyl barbituric acid] here?
Its value is 1/100.

What about the AUC at 24 h ([2]; po, Oral, female) of the same compound?
The AUC at 24 h was 1210 µg·h/mL.

And the AUC at 24 h ([2]; po, Oral, male)?
Its AUC at 24 h is 623 µg·h/mL.

What about the protection ([5]; brain concentrations in excess of 10 µg/ml) of the same compound?
Its protection is at least 50%.

What about the protection ([5]; brain concentrations of DPB less than 1 µg/ml) of the same compound?
Its protection is at most 20%.

And the “Mean Brain Concentrations of DPB” value ([6]; female, 24 hr)?
The value was 7.04 µg/g.

And the “Mean Brain Concentrations of DPB” value ([6]; female, 36 hr)?
The value was 6.84 µg/g.

And the “Mean Brain Concentrations of DPB” value ([6]; female, 48 hr)?
The value was 5.24 µg/g.

What about the “Mean Brain Concentrations of DPB” value ([6]; male, 24 hr) of the same compound?
The value was 3.09 µg/g.

What about the “Mean Brain Concentrations of DPB” value ([6]; male, 36 hr) of the same compound?
Its value is 3.36 µg/g.

What about the “Mean Brain Concentrations of DPB” value ([6]; male, 48 hr) of the same compound?
The value was “BQL”.
